Experimental data published in patent US20200390755A1, “COMPOUND FOR TREATING NERVOUS SYSTEM DISEASES AND USE THEREOF” (SHAANXI MICOT TECHNOLOGY CO., LTD., priority 2018, published 2020).

Columns and labels:
[1] = tested on: WT mice; assay: High-altitude balance beam (11 mm) experiment 1, WT mice; format: in vivo, mouse; settings: 5 mg/kg/d intragastric
Method: 7-week-old N171-82Q HD male mice were paired with female B6C3F1/J hybrid mice to obtain newborn mice. From 21 days of age, male mice were housed in separate cages. 0.5 cm of mouse tail tissue was removed to extract DNA to determine the genotype of the mouse, such that N171-82Q HD mice and WT mice needed for the experiment were obtained. The mice were randomly divided into WT Vehicle group (normal mice), WT test compound group (administration group of normal mice, 5 mg/kg/d, n=10), HD Vehicle group (blank group of HD mice, n=15), HD test compound group (administration groups 1-5 of HD mice, 5 mg/kg/d, n=10). The test compound was suspended in 1% CMC-Na solution and administered by intragastric administration until the end of the study. The weights of the mice were measured every week. Behavioral tests were performed at 12 weeks, 18 weeks, and 24 weeks of age to investigate motor function. At 20 weeks, 3 samples of tissue from each group were used for western blotting and immunohistochemistry. At 24 weeks, MRI scans were performed. At the end of the study, the effect of the test compound on the mortality of mice was evaluated. The software Sigmaplot 13.0 was used for statistical analysis of the data, and the data of each group was expressed as mean standard error (x±SEM). Behavioral test results were analyzed using two-way (genotype and processing factor) ANOVA and post-ho tests, the comparison and statistics of weight data were performed using two-way (genotype and age) ANOVA of repeated measures, and mortality was counted using Kaplan-Meier method. Other measurement data were analyzed by one-way ANOVA. P<0.05 was considered statistically significant. The motor function of mice was evaluated by the rotarod experiment and three types of balance beam experiments. […] If the time for crossing the beams was greater than 60 seconds, it was recorded as 60 seconds. a round balance beam with a length of 80 cm and a diameter of 11 mm was place at a height of about 50 cm from the ground. […]

[2] = tested on: WT mice; assay: Rotarod experiment, WT mice; format: in vivo, mouse; settings: 5 mg/kg/d intragastric
Method: 7-week-old N171-82Q HD male mice were paired with female B6C3F1/J hybrid mice to obtain newborn mice. From 21 days of age, male mice were housed in separate cages. 0.5 cm of mouse tail tissue was removed to extract DNA to determine the genotype of the mouse, such that N171-82Q HD mice and WT mice needed for the experiment were obtained. The mice were randomly divided into WT Vehicle group (normal mice), WT test compound group (administration group of normal mice, 5 mg/kg/d, n=10), HD Vehicle group (blank group of HD mice, n=15), HD test compound group (administration groups 1-5 of HD mice, 5 mg/kg/d, n=10). The test compound was suspended in 1% CMC-Na solution and administered by intragastric administration until the end of the study. The weights of the mice were measured every week. Behavioral tests were performed at 12 weeks, 18 weeks, and 24 weeks of age to investigate motor function. At 20 weeks, 3 samples of tissue from each group were used for western blotting and immunohistochemistry. At 24 weeks, MRI scans were performed. At the end of the study, the effect of the test compound on the mortality of mice was evaluated. The software Sigmaplot 13.0 was used for statistical analysis of the data, and the data of each group was expressed as mean standard error (x±SEM). Behavioral test results were analyzed using two-way (genotype and processing factor) ANOVA and post-ho tests, the comparison and statistics of weight data were performed using two-way (genotype and age) ANOVA of repeated measures, and mortality was counted using Kaplan-Meier method. Other measurement data were analyzed by one-way ANOVA. P<0.05 was considered statistically significant. The motor function of mice was evaluated by the rotarod experiment and three types of balance beam experiments. The shorter the time for mouse to cross the balance beam, and the longer the time to drop, the stronger the coordination ability of the mouse. […] The time the mouse remained on the rod, i.e., drop latent period, was recorded to indicate its motor coordination ability. […]

`O=c1cc(-c2ccc(N3CCCCC3)cc2)oc2c(O)c(O)ccc12` [Example 1, 7,8-dihydroxy-2-(4-(piperidin-1-yl)phenyl)-4H-chromen-4-one] was tested, and the “Time for crossing the beams, high-altitude balance beam (11 mm)” value (“Time for crossing the beams” for short) ([1]; 12 w) was 8.18 ± 1.99 s, the “Time for crossing the beams” value ([1]; 18 w) was 7.55 ± 2.42 s and the “Time for crossing the beams” value ([1]; 24 w) was 8.18 ± 4.29 s. The “Time to drop (drop latent period), rotarod” value (“Time to drop” below) ([2]; 12 w) was 98.33 ± 30.03 s, the “Time to drop” value ([2]; 18 w) was 78.97 ± 23.84 s and the “Time to drop” value ([2]; 24 w) was 73.72 ± 18.25 s.
